Data reported in ChEMBL document CHEMBL1201862, “PubChem BioAssay data set” (2004).
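These data come from cells grown in 96-well plates and exposed to compound for 48 hours at five concentrations. At the GI50, growth is halved.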 Active and inactive are the calls of the source. No stated cut-off is given here; in the data, active = GI50 up to about 1.1 µM and inactive = higher.

How the values were obtained:
Assay in all cases: inhibition of tumour cell growth, NCI panel, 48 h
[1] = system: PC-3
[2] = system: OVCAR-5
[3] = system: TK-10
[4] = system: HOP-62
[5] = system: OVCAR-3
[6] = system: SR
[7] = system: ACHN
[8] = system: NCI-H226
[9] = system: 786-0
[10] = system: RPMI-8226
[11] = system: LOX IMVI
[12] = system: NCI-H23
[13] = system: NCI/ADR-RES
[14] = system: OVCAR-4
[15] = system: SNB-19
[16] = system: UO-31
[17] = system: A549
[18] = system: SNB-75
[19] = system: BT-549

SMILES	GI50 [1]	GI50 [2]	GI50 [3]	GI50 [4]	GI50 [5]	GI50 [6]	GI50 [7]	GI50 [8]	GI50 [9]	GI50 [10]	GI50 [11]	GI50 [12]	GI50 [13]	GI50 [14]	GI50 [15]	GI50 [16]	GI50 [17]	GI50 [18]	GI50 [19]
CC(NC1=NCCO1)c1ccco1 (stereo not given)	> 100 µM (inactive)	> 100 µM (inactive)	> 100 µM (inactive)	> 100 µM (inactive)	> 100 µM (inactive)	75.9 µM (inactive)	> 100 µM (inactive)	> 100 µM (inactive)	> 100 µM (inactive)	> 100 µM (inactive)	> 100 µM (inactive)	> 100 µM (inactive)	> 100 µM (inactive)	> 100 µM (inactive)	> 100 µM (inactive)	> 100 µM (inactive)	> 100 µM (inactive)	–	–
CC(=O)C(C(C)=O)=C1CCCC(O)O1 (stereo not given)	–	> 100 µM (inactive)	> 100 µM (inactive)	> 100 µM (inactive)	–	62.2 µM (inactive)	> 100 µM (inactive)	> 100 µM (inactive)	> 100 µM (inactive)	> 100 µM (inactive)	–	> 100 µM (inactive)	> 100 µM (inactive)	> 100 µM (inactive)	> 100 µM (inactive)	> 100 µM (inactive)	> 100 µM (inactive)	> 100 µM (inactive)	–
Cc1nc2ccccc2c(=O)n1/N=C(\N=N\c1cc(Cl)ccc1Cl)c1cccc(-c2ccco2)c1	–	> 100 µM (inactive)	> 100 µM (inactive)	> 100 µM (inactive)	> 100 µM (inactive)	–	73.6 µM (inactive)	> 100 µM (inactive)	> 100 µM (inactive)	42.8 µM (inactive)	> 100 µM (inactive)	> 100 µM (inactive)	–	> 100 µM (inactive)	> 100 µM (inactive)	37.7 µM (inactive)	> 100 µM (inactive)	> 100 µM (inactive)	–
O=c1[nH]nc(-c2ccccc2)n1/N=C/c1cccs1	66.1 µM (inactive)	> 100 µM (inactive)	–	> 100 µM (inactive)	> 100 µM (inactive)	–	70 µM (inactive)	59.4 µM (inactive)	91.4 µM (inactive)	27.1 µM (inactive)	43.2 µM (inactive)	36.6 µM (inactive)	32.7 µM (inactive)	21.7 µM (inactive)	> 100 µM (inactive)	58.3 µM (inactive)	52.4 µM (inactive)	49.7 µM (inactive)	27.5 µM (inactive)
COc1cccc(N2C(=O)[C@H]3[C@H]4CC(C(C)(C)C)CC[C@H]4c4c([nH]c5ccccc45)[C@H]3C2=O)c1 (stereo not given in full)	–	–	15.2 µM (inactive)	17.7 µM (inactive)	15.7 µM (inactive)	–	–	22.1 µM (inactive)	16.6 µM (inactive)	15.4 µM (inactive)	16.5 µM (inactive)	19.2 µM (inactive)	–	–	18.9 µM (inactive)	17.6 µM (inactive)	15.3 µM (inactive)	15.3 µM (inactive)	–
C[C@H](NC(=O)C(Cc1ccccc1)(Cc1ccc(O)cn1)NC(=O)c1ccccc1)c1ccccc1 (stereo not given in full)	14.2 µM (inactive)	21.9 µM (inactive)	29.9 µM (inactive)	17.9 µM (inactive)	14.7 µM (inactive)	–	18.9 µM (inactive)	19.7 µM (inactive)	16.7 µM (inactive)	21.1 µM (inactive)	14.8 µM (inactive)	22 µM (inactive)	17.4 µM (inactive)	15.1 µM (inactive)	18.8 µM (inactive)	14.8 µM (inactive)	14.3 µM (inactive)	–	18.1 µM (inactive)
CC1=NN(c2nc(N)nc(/C(C#N)=C\C3COc4ccccc4C3=O)n2)C(C)(C)C1 (stereo not given)	24.4 µM (inactive)	35.6 µM (inactive)	27.6 µM (inactive)	32.7 µM (inactive)	22.6 µM (inactive)	17.6 µM (inactive)	23.6 µM (inactive)	22.8 µM (inactive)	19.2 µM (inactive)	17.7 µM (inactive)	27.2 µM (inactive)	27 µM (inactive)	15.9 µM (inactive)	34 µM (inactive)	–	18.9 µM (inactive)	–	–	–
NCCCCN(CCCN)C(=O)c1ccccc1	> 100 µM (inactive)	> 100 µM (inactive)	> 100 µM (inactive)	> 100 µM (inactive)	> 100 µM (inactive)	–	> 100 µM (inactive)	> 100 µM (inactive)	> 100 µM (inactive)	> 100 µM (inactive)	–	> 100 µM (inactive)	> 100 µM (inactive)	> 100 µM (inactive)	> 100 µM (inactive)	> 100 µM (inactive)	> 100 µM (inactive)	> 100 µM (inactive)	> 100 µM (inactive)
N#CC1(C#N)C2C=CC(C3CC=CC32)C1(C#N)C#N (stereo not given)	8.59 µM (inactive)	8.39 µM (inactive)	2 µM (inactive)	12.9 µM (inactive)	2.45 µM (inactive)	2.29 µM (inactive)	5.12 µM (inactive)	> 50 µM (inactive)	1.79 µM (inactive)	2.35 µM (inactive)	8.59 µM (inactive)	8.32 µM (inactive)	12.9 µM (inactive)	4.01 µM (inactive)	> 50 µM (inactive)	2.17 µM (inactive)	10.7 µM (inactive)	> 10 µM (inactive)	–
CCCCC1CCCCCCc2[nH]c(/C=C3\N=C(c4ccc[nH]4)C=C3OC)cc21 (stereo not given)	< 0.0119 µM (active)	0.116 µM (active)	0.338 µM (active)	0.0181 µM (active)	< 0.01 µM (active)	< 0.01 µM (active)	< 0.0111 µM (active)	0.205 µM (active)	< 0.01 µM (active)	< 0.01 µM (active)	< 0.01 µM (active)	< 0.0221 µM (active)	< 0.0169 µM (active)	< 0.0127 µM (active)	0.151 µM (active)	0.0194 µM (active)	< 0.0139 µM (active)	< 0.0306 µM (active)	–
O=C(Cc1ccccc1)NN1C(=O)/C(=C\c2ccccc2O)S/C1=N\c1ccccc1	–	> 100 µM (inactive)	> 100 µM (inactive)	> 100 µM (inactive)	> 100 µM (inactive)	–	> 100 µM (inactive)	> 100 µM (inactive)	> 100 µM (inactive)	> 100 µM (inactive)	–	> 100 µM (inactive)	> 100 µM (inactive)	> 100 µM (inactive)	> 100 µM (inactive)	> 100 µM (inactive)	> 100 µM (inactive)	> 100 µM (inactive)	> 100 µM (inactive)
Cc1sc2ccccc2[n+]1CCC(=O)O	> 100 µM (inactive)	> 100 µM (inactive)	> 100 µM (inactive)	> 100 µM (inactive)	> 100 µM (inactive)	–	> 100 µM (inactive)	> 100 µM (inactive)	> 100 µM (inactive)	> 100 µM (inactive)	> 100 µM (inactive)	> 100 µM (inactive)	> 100 µM (inactive)	> 100 µM (inactive)	> 100 µM (inactive)	–	> 100 µM (inactive)	> 100 µM (inactive)	> 100 µM (inactive)
SC1=C2CCCCCC2=NC2(CCCCCC2)S1	27.5 µM (inactive)	30.5 µM (inactive)	24.7 µM (inactive)	31.7 µM (inactive)	20.5 µM (inactive)	15.6 µM (inactive)	13 µM (inactive)	12.4 µM (inactive)	33.1 µM (inactive)	18.5 µM (inactive)	29.4 µM (inactive)	9.12 µM (inactive)	26.5 µM (inactive)	16.9 µM (inactive)	25.8 µM (inactive)	11.6 µM (inactive)	24.5 µM (inactive)	19.2 µM (inactive)	–
CC1CCC2(OCCO2)[C@]2(C)CC(O)C(=O)C=C12 (stereo not given in full)	–	> 100 µM (inactive)	> 100 µM (inactive)	–	> 100 µM (inactive)	> 100 µM (inactive)	> 100 µM (inactive)	> 100 µM (inactive)	> 100 µM (inactive)	> 100 µM (inactive)	–	> 100 µM (inactive)	–	–	> 100 µM (inactive)	> 100 µM (inactive)	> 100 µM (inactive)	–	–
CCCCSC1=N/C(=C\c2ccc(N(C)C)cc2)C(NN)=N1	> 100 µM (inactive)	> 100 µM (inactive)	> 100 µM (inactive)	> 100 µM (inactive)	> 100 µM (inactive)	–	> 100 µM (inactive)	–	> 100 µM (inactive)	> 100 µM (inactive)	> 100 µM (inactive)	> 100 µM (inactive)	> 100 µM (inactive)	> 100 µM (inactive)	> 100 µM (inactive)	–	> 100 µM (inactive)	> 100 µM (inactive)	> 100 µM (inactive)
CCOC(=O)Cc1csc(NC(NC(=O)OCC)(C(=O)OCC)C(F)(F)F)n1 (stereo not given)	> 100 µM (inactive)	> 100 µM (inactive)	> 100 µM (inactive)	> 100 µM (inactive)	> 100 µM (inactive)	> 100 µM (inactive)	> 100 µM (inactive)	> 100 µM (inactive)	> 100 µM (inactive)	> 100 µM (inactive)	> 100 µM (inactive)	> 100 µM (inactive)	> 100 µM (inactive)	> 100 µM (inactive)	> 100 µM (inactive)	> 100 µM (inactive)	> 100 µM (inactive)	> 100 µM (inactive)	–
COc1cccc(/C=N/n2c(Cc3ccccc3)n[nH]c2=O)c1	> 100 µM (inactive)	> 100 µM (inactive)	> 100 µM (inactive)	42.9 µM (inactive)	> 100 µM (inactive)	–	> 100 µM (inactive)	–	50.1 µM (inactive)	> 100 µM (inactive)	48.9 µM (inactive)	> 100 µM (inactive)	> 31.9 µM (inactive)	> 100 µM (inactive)	> 100 µM (inactive)	> 100 µM (inactive)	> 100 µM (inactive)	29.4 µM (inactive)	> 100 µM (inactive)
